The target in one assay is T1, Central CCK-B Receptors (Mus musculus, UniProt P56481).
T1 construct: from tissue; host or cells: cerebral cortex membranes of male CFLP mice (30 to 40 g)
T1 sequence (P56481 1-453): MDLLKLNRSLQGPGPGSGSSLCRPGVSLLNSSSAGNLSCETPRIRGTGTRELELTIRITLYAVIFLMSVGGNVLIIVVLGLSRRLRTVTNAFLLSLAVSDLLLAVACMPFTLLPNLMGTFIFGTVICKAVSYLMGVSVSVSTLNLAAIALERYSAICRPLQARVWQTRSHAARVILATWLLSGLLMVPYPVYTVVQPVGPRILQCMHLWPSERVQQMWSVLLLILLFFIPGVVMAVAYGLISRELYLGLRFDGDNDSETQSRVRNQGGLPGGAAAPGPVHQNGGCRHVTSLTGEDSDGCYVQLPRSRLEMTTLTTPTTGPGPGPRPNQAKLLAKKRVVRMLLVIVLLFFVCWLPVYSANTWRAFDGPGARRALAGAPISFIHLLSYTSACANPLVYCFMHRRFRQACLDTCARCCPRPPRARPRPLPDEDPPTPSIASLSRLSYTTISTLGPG
As to the kind of experiment: Binding to central CCK-B receptors: displacement of tritiated-pentagastrin from cerebral cortical membranes. Also on record: species or system mouse (male CFLP mice). As to conditions: tritiated-pentagastrin 2 nM, 23° C., pH 7.2. How it is done: The biological activity of compounds of the present invention was evaluated employing an initial screening test which rapidly and accurately measured the binding of the tested compound to known CCK receptor sites. […] (See Hays, et al, Neuropeptides 1:53-62, 1980; and Satuer et al, Science 208:1155-1156, 1980.)
In this screening test, the cerebral cortices taken from male CFLP mice weighing between 30 to 40 g were dissected on ice, weighed, and homogenized in 10 volumes of 50 mM Tris-HCl buffer (pH 7.4 at 0°-4° C.). The resulting suspension was centrifuged, the supernate was discarded, and the pellet was washed by resuspension in Tris-HCl buffer followed by recentrifugation. The final pellet was resuspended in 20 volumes of […] buffer (pH 7.2 at 23° C.) containing 130 mM NaCl, […], […], […], 5 mg/mL bovine albumin, and bacitracin (0.25 mg/mL).
In saturation studies, cerebral cortical membranes were incubated at 23° C. for 120 minutes in a final volume of 500 μL of Hepes incubation buffer (pH 7.2) together with 0.2-20 nM tritiated-pentagastrin (Amersham International, England).
In the displacement experiments, membranes were incubated with a single concentration (2 nM) of ligand, together with increasing concentrations ([…] to 10^-4 M) of competitive test compound. In each case, the nonspecific binding was defined as that persisting in the presence of the unlabeled octapeptide CCK26-33 (10^-6 M).
Following incubation, radioactivity bound to membranes was separated from that free in solution by rapid filtration through Whatman GF/B filters and washed three times with 4 mL of ice cold Tris-HCl buffer. Filters from samples incubated with tritiated pentagastrin were placed in polyethylene vials with 4 mL of scintillation cocktail, and the radioactivity was estimated by liquid scintillation spectrometry (efficiency 47% to 52%).
The specific binding to CCK receptor sites was defined as the total bound tritiated-pentagastrin minus the amount of tritiated-pentagastrin bound in the presence of 10^-6 octapeptide, CCK26-33.
Saturation curves for specific tritiated-pentagastrin binding to mouse cortical membranes were analyzed by the methods of Scatchard (Ann. New York Acad. Sci. 51:660-672, 1949), and Hill (J. Physiol. 40:IV-VIII, 1910), to provide estimates for the maximum number of binding sites (Bmax) and the equilibrium dissociation constant (Ka).
In displacement experiments, inhibition curves were analyzed by either logit-log plots or the iterative curve fitting computer program ALLFIT (DeLean, Munson, and Redbard, 1978) to provide estimates of the IC50 and nH (apparent Hill coefficient values). (IC50 values were defined as the concentration of test compound required to produce 50% inhibition of specific binding.)
The inhibition constant (Ki) of the test compound was then calculated according to the Cheng Prusoff equation: [formula] where [L]is the concentration of radiolabel and Ka is the equilibrium dissociation constant.
^a Binding affinity protocol Horwell, et al, J. Med. Chem. 34:404,
As usually defined, the Ki is a dissociation constant, usually derived from enzyme kinetics or from competition with a known ligand. Read a low Ki as a stronger hold on the target. `COC(=O)CC(=O)Nc1ccccc1CCNC(=O)/C(=C/c1c[nH]c2ccccc12)NC(=O)OC1C2CC3CC(C2)CC1C3` (stereo not shown) [4, step 2] registered a Ki of 616 nM. Still for that read-out and setting: next, `O=C(N/C(=C\c1c[nH]c2ccccc12)C(=O)NCCc1ccccn1)OC1C2CC3CC(C2)CC1C3` (stereo not shown) [Example 3, Tricyclo[3.3.1.1^3,7]dec-2-yl (Z)-[1-(1H-indol-3-ylmethylene) -2-oxo-2-[[2-(2-pyridinyl)ethyl]amino]ethyl]carbamate]: 507 nM. Same read-out and setting: next, `O=C(O)C[C@H](Cc1ccccc1)NC(=O)C(=Cc1c[nH]c2ccccc12)NC(=O)OC1C2CC3CC(C2)CC1C3` (mixture of isomers) [Example 5, (E/Z)-N-[α,β-Didehydro-N-[(tricyclo[3.3.1.1^3,7]dec-2-yloxy)carbonyl]tryptophyl]-L-3-(phenylmethyl)-β-alanine]: 0.3 nM. Same read-out and setting: in the case of `O=C(O)CC(=O)Nc1ccccc1CCNC(=O)/C(=C/c1c[nH]c2ccccc12)NC(=O)OC1C2CC3CC(C2)CC1C3` (stereo not shown) [Example 4, (Z)-3-[[2-[2-[[3-(1H-indol-3-yl)-1-oxo-2-[[(tricyclo[3.3.1.1^3,7]dec-2-yloxy)carbonyl]amino]-2-propenyl]amino]ethyl]phenyl]amino]-3-oxopropanoic acid] it was 209 nM; in that of `O=C(N/C(=C\c1c[nH]c2ccccc12)C(=O)NCCc1ccccc1)OC1C2CC3CC(C2)CC1C3` (stereo not shown) [Example 1, Carbamic acid, [1-(1H-indol-3-ylmethylene)-2-oxo-2-[(2-phenylethyl)amino]ethyl]-, tricyclo[3.3.1.1^3,7]dec-2-yl ester, (Z)-], 1520 nM; in that of `O=C(O)C[C@H](Cc1ccccc1)NC(=O)/C(=C/c1c[nH]c2ccccc12)NC(=O)OC1C2CC3CC(C2)CC1C3` (stereo partly drawn) [Example 2, (Z)-N-[α,β-Didehydro-N-[(tricyclo[3.3.1.1^3,7]dec-2-yloxy)carbonyl]tryptophyl]-L -3-(phenylmethyl)-β-alanine], 13 nM.

Another assay relates to hyperactivity caused by the injection of amphetamine into the nucleus accumbens of the rat. As to the kind of experiment: Reduction of hyperactivity caused by intra-accumbens amphetamine (locomotor activity, antipsychotic test). It counts as in vivo, rat (male Sprague Dawley (CD) Bradford strain). As to conditions: bilateral injection of amphetamine (20 μg) into the nucleus accumbens, 20 to 40 minutes after injection. The protocol:
The compounds of the instant invention are useful as antipsychotic agents. The compounds are tested for their ability to reduce the effects of intra-accumbens amphetamine in the rat as described hereinafter.
Male Sprague Dawley (CD) Bradford strain rats are used. The rats are housed in groups of five at a temperature of 21°±2° C. on a 12-hour light-dark cycle of lights-on between 07 hours 00 minutes and 20 hours 00 minutes. Rats are fed CRM diet (Labsure) and allowed water ad libitum.
Rats are anesthetized with chloral hydrate (400 mg/kg^-1 SC) and placed in a Kopf stereotaxic frame. Chronically indwelling guide cannulae (constructed of stainless steel tubing 0.65 mm diameter held bilaterally on Parspex holders) are implanted using standard stereotaxic techniques to terminate 3.5 mm above the center of the nucleus accumbens (Ant. 9.4, Vert. 0.0, Lat. 1.6) or 5.0 mm above the central nucleus of the amygdala (Ant. 5.8, Vert. -1.8, lat. ±4.5) (atlas of De Groot, 1959). The guides are kept patent during a 14 day recovery period using stainless steel stylets, 0.3 mm diameter, which extend 0.5 mm beyond the guide tips.
Rats are manually restrained and the stylets removed. […]
The abilities of the compounds (20) and (20A) to inhibit the hyperactivity caused by the injection of amphetamine into the nucleus accumbens of the rat is measured. […]
Turning to `CC(N)Cc1ccccc1` (stereo not shown) [amphetamine], the peak hyperactivity was 50 to 60 counts 5 minutes^-1.
